Test systems include U251 CNS; RXF 393 renal; NCI-H522 lung; SF-268 CNS; SNB-75 CNS; COLO 205 colon; LOX IMVI melanoma; SN12C renal; HOP-62 NSCLC; SR leukemia.
Experiment in all cases: NCI-60 cell line screen, 48 h

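Growth conditions: 96-well plates. Treatment: test compound, 48 hours, 5 concentrations. Analysis: linear interpolation between bracketing concentrations; unreached endpoints set to highest concentration. Here, GI50 denotes the concentration required for 50% inhibition of growth. TGI marks complete inhibition of growth.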

For the compound `CCOP(=O)(Cc1ccc(CP(=O)(OCC)OCC)n1C)OCC`, the TGI in the test on U251 CNS, in the test on RXF 393 renal, in the test with NCI-H522 lung, with SF-268 CNS, in the test with SNB-75 CNS and in the test with COLO 205 colon was over 100 µM throughout. For the same compound, the TGI with LOX IMVI melanoma, in the test on SN12C renal and in the test on HOP-62 NSCLC was over 100 µM each time.

Take `S=C(N/N=C/c1ccco1)NC12CC3CC(CC(C3)C1)C2`: the TGI with U251 CNS is over 100 µM; with RXF 393 renal it was over 100 µM; with NCI-H522 lung, over 100 µM; in the test with SF-268 CNS, over 100 µM; in the test with SNB-75 CNS it was over 100 µM; with COLO 205 colon, 33.4 µM. The TGI in the test with LOX IMVI melanoma, in the test on SN12C renal and in the test on HOP-62 NSCLC was over 100 µM in each case.

Consider `COc1ccc(OC)c(NC(=O)C(=O)NNC(=O)c2sc(NNC(C)=O)nc2C)c1`, for which the TGI with SR leukemia is over 100 µM; with U251 CNS, over 100 µM; in the test with NCI-H522 lung it was 44.3 µM; with SF-268 CNS, 75.9 µM; with LOX IMVI melanoma, 83.3 µM; with SN12C renal it was over 100 µM. Besides, the TGI in the test with HOP-62 NSCLC was over 100 µM.

In the case of `CNCCNc1c2c(c(NCCNC)c3c(CN(C)C)c[nH]c13)C(=O)c1ccccc1C2=O`, the GI50 in the test on U251 CNS was 2.95 µM; with RXF 393 renal it was 2.5 µM; with NCI-H522 lung it was 0.514 µM; in the test on SF-268 CNS, 1.3 µM; in the test on SNB-75 CNS, 7.14 µM; in the test with LOX IMVI melanoma it was 2.35 µM. For the same compound, the GI50 in the test on SN12C renal is 0.788 µM; in the test with HOP-62 NSCLC it was 2.9 µM. The TGI in the test on U251 CNS is 13.8 µM; in the test with RXF 393 renal it was 11 µM; with NCI-H522 lung, 3.59 µM; in the test on SF-268 CNS, 9.21 µM; with SNB-75 CNS it was 22 µM; in the test on COLO 205 colon, over 34.5 µM. Also, the TGI with LOX IMVI melanoma was 6.04 µM; in the test with SN12C renal, 7.47 µM; with HOP-62 NSCLC, 10.1 µM.

Regarding `O=C1c2ccccc2C2(Br)C(=O)c3ccccc3C12` (stereo unspecified), the TGI in the test with U251 CNS, with RXF 393 renal, in the test on NCI-H522 lung, with SF-268 CNS, with SNB-75 CNS and with COLO 205 colon was over 100 µM each time. The TGI with LOX IMVI melanoma is 26.4 µM; in the test with SN12C renal, over 100 µM; in the test with HOP-62 NSCLC, over 100 µM.

On to `Cc1c2cccnc2c(C)c2c1c1cc(CO)ccc1n2C`, for which the GI50 was 1.93 µM in the test with U251 CNS; 1.93 µM in the test on RXF 393 renal; 1.98 µM with NCI-H522 lung; 2.29 µM in the test on SF-268 CNS; 1.51 µM with COLO 205 colon; 1.5 µM with LOX IMVI melanoma. Also, the GI50 in the test with SN12C renal is 2.08 µM; in the test on HOP-62 NSCLC, 1.31 µM. The TGI is 11 µM with U251 CNS; 5.5 µM with RXF 393 renal; 6.53 µM in the test with NCI-H522 lung; 15.1 µM in the test on SF-268 CNS; 6.11 µM in the test with COLO 205 colon; 4.82 µM with LOX IMVI melanoma. The results for the TGI with SN12C renal and with HOP-62 NSCLC were 40.3 µM and 6.52 µM, respectively.

Take `O=C1CN=C(C[N+](=O)[O-])c2ccccc21`: the TGI in the test on SR leukemia, in the test on U251 CNS, in the test on NCI-H522 lung, with SF-268 CNS, with SNB-75 CNS and in the test on COLO 205 colon was over 100 µM each time. Also, the TGI with SN12C renal and with HOP-62 NSCLC was over 100 µM throughout.

Consider `CCCCCCCCCC/C=C/CC(=O)SCCNC(=O)CCNC(=O)[C@@H](O)C(C)(C)COP(=O)(O)OP(=O)(O)OCC1OC(n2cnc3c(N)ncnc32)C(O)C1OP(=O)(O)O` (stereo partly specified), for which the TGI with U251 CNS, with RXF 393 renal, in the test with SF-268 CNS, with SNB-75 CNS, in the test with COLO 205 colon and in the test on LOX IMVI melanoma was over 10 µM in each case. In addition, the TGI in the test on SN12C renal and in the test on HOP-62 NSCLC was over 10 µM each time.

In the case of `COC(=O)C1=C(C)N(NC(=O)c2ccccc2)C(C)(O)C12CCOC2=O` (stereo unspecified), the TGI with U251 CNS, in the test with NCI-H522 lung, with SF-268 CNS, in the test with COLO 205 colon, in the test on LOX IMVI melanoma and in the test on SN12C renal was over 100 µM throughout. In the test with HOP-62 NSCLC, this compound came in with a TGI of over 100 µM.

With `Ic1ccc(Nc2nc3nonc3nc2Nc2ccc(I)cc2)cc1`, the GI50 in the test on U251 CNS is 0.324 µM; with SF-268 CNS, 0.304 µM; in the test with SNB-75 CNS, 0.227 µM; with COLO 205 colon, 0.265 µM; in the test on HOP-62 NSCLC, 0.302 µM. In addition, the TGI in the test on U251 CNS is over 100 µM; in the test with SF-268 CNS, over 100 µM; with SNB-75 CNS, over 100 µM; in the test with COLO 205 colon, 0.937 µM; in the test with HOP-62 NSCLC, 0.961 µM.

Regarding `Cc1ccccc1N1C(=O)/C(=C/c2ccc(N(CCC#N)CCC#N)cc2)N=C1c1cc([N+](=O)[O-])ccc1Cl`, the TGI in the test with SR leukemia is over 100 µM; with U251 CNS, over 100 µM; in the test on NCI-H522 lung, over 100 µM; in the test on SF-268 CNS it was over 100 µM; in the test on SNB-75 CNS it was over 100 µM; in the test with COLO 205 colon it was 72 µM. Besides, the TGI with SN12C renal and with HOP-62 NSCLC was over 100 µM each time.

On to `Clc1ccc2c(NCCCNc3nccc(Nc4ccc(Br)cc4)n3)ccnc2c1`, for which the GI50 in the test with U251 CNS is 1.52 µM; with NCI-H522 lung, 1.93 µM; with SF-268 CNS, 1.73 µM; in the test on SNB-75 CNS it was 1.3 µM; with COLO 205 colon, 1.64 µM; with SN12C renal it was 1.69 µM. For the same compound, the TGI in the test on U251 CNS is 2.94 µM; in the test with NCI-H522 lung, 3.52 µM; in the test on SF-268 CNS, 3.32 µM; in the test with SNB-75 CNS, 2.57 µM; in the test on COLO 205 colon, 3.22 µM; with SN12C renal it was 3.37 µM.

For `C=CC1CC12C(=O)C1OC2(C)C2C(=O)c3cc4ccccc4cc3C(=O)C12` (stereo unspecified), the GI50 with U251 CNS was 21.1 µM; in the test on RXF 393 renal, 11.1 µM; with NCI-H522 lung, 29.3 µM; with SF-268 CNS it was 26.7 µM; with SNB-75 CNS, 35.5 µM; in the test with COLO 205 colon it was 44.7 µM. In addition, the GI50 in the test with SN12C renal is 27.8 µM; in the test with HOP-62 NSCLC, 75.9 µM. The TGI is 56.7 µM in the test on U251 CNS; 38 µM in the test on RXF 393 renal; over 100 µM with NCI-H522 lung; over 100 µM in the test with SF-268 CNS; over 100 µM with SNB-75 CNS; over 100 µM with COLO 205 colon. The TGI in the test on SN12C renal and in the test on HOP-62 NSCLC was over 100 µM throughout.

Source of the values: PubChem BioAssay (NCI).
